For 36 compounds, IC50 results are on record in patent publication US20240002388A1, “PYRIMIDINONE COMPOUNDS AND USES THEREOF” (HUTCHISON MEDIPHARMA LIMITED, priority 2020, published 2024).

This assay concerns U937 cell line (human histiocytic lymphoma cell line). In words: U937 cell viability assay (TNF-α + Z-VAD-FMK induced necroptosis). It is filed as cell-based. Conditions: Homo sapiens, U-937; U937 cells, hTNF-α 0.1 μg/mL + Z-VAD-FMK 50 μM, 20 hours, CellTiter-Glo. How it is done: U937 cell line (human histiocytic lymphoma cell line): purchased from ATCC (American Type Culture Collection) Cell Bank, cultured in a 5% CO2, 37° C. incubator, and RPMI 1640 medium which contains L-glutamine, 1.5 g/L sodium bicarbonate, 2.383 g/L HEPES solution, 0.11 g/L sodium pyruvate and 4.5 g/L glucose, plus 10% fetal bovine serum (FBS) was used. • RPMI 1640 medium: GIBCO, Cat #A10491-01; • Fetal bovine serum (FBS): GIBCO, Cat #10099-141C; • Dimethyl sulfoxide (DMSO): Sigma, Cat #D2650; • Recombinant Human TNF-alpha Protein (hTNF-α): R&D system, Cat #210-TA-100; • Pan-Caspase inhibitor (Z-VAD-FMK): Selleckchem, Cat #S7023; • CellTiter-Glo 2.0 Cell Viability Assay kit: Promega, Cat #G9242; • Microwell plate reader: Envision, Perkin Elmer; • 96-well plate: Corning, Cat #3917.
The U937 cells at the logarithmic phase were taken out, centrifuged to remove the medium, washed with PRMI 1640 medium containing 1% FBS, and diluted with 1% FBS-containing RPMI 1640 medium to 2.5×10^5 cells/ml, inoculated at 70 μL/well into a 96-well plate, i.e., 1.75×10^4 cells/well. The plate was cultured in a 5% CO2, 37° C. cell incubator. After incubating for 1 hour, the test compound was diluted to the corresponding concentrations using DMSO with 3-fold serial dilution, then the corresponding concentration of DMSO diluted solution was diluted into 1% FBS-containing RPMI 1640 medium, and 10 μL/well of the diluted test compound with different concentrations (final concentration of test compound was 1.0, 0.333, 0.111, 0.037, 0.012, 0.004, 0.0014 and 0.0005 μM, while final concentration of DMSO was 0.3%) or 10 μL/well control solution (3% DMSO) were added to the cell culture system respectively, with the total volume being 80 μL/well; Then 10 μL of Z-VAD-FMK solution diluted with 1% FBS-containing RPMI 1640 medium (final concentration of 50 μM) or 10 μL of control solution (2.5% DMSO) was added to each well, with the total volume being 90 μL/well. The plate was incubated in a 5% CO2, 37° C. cell culture incubator for 1 hour.
After being cultured for 1 hour, 10 μL of human recombinant TNF-α protein diluted with 1% FBS-containing RPMI 1640 medium (final concentration of 0.1 μg/mL) or 10 μL/well control solution (1% FBS-containing RPMI 1640 medium) was added to each well. The plate was incubated in a 5% CO2, 37° C. cell culture incubator for 20 hours.
The cell culture plate was taken out from the incubator, and left to stand at room temperature for 30 minutes. Meanwhile, CellTiter-Glo viability assay kit was put from freezer to room temperature, and 50 μL of CellTiter-Glo reagent was added to all wells, the plate was shaken for 1 minutes, protected from light at room temperature for 10 minutes then read the plate on Envision to get the luminescence signal.
The 96-well plate in the dark was taken out, and the chemiluminescence was determined using the Envision microwell plate reader as the signal value of each well.
The mean signal value of the wells of the mixed solution of recombinant human TNF-alpha protein (final concentration of 0.1 μg/mL) and Pan-Caspase inhibitor (final concentration of 50 μM) was used as the lower value, and the mean signal value of the wells without stimulation was used as the upper value. According to the signal value of each well, the inhibition rate of each concentration of every compound was calculated, and the IC50 value of compound was obtained by Model 205 in XL-Fit 5.3 software (ID Business Solutions Limited).
Inhibition rate %=[(Luminescence readout of treated compound−Luminescence readout of positive control)/(Luminescence readout of negative control−Luminescence readout of positive control)]×100%, wherein
A general note: Cellular ATP, detected with luciferase, serves as a proxy for viable cell number.

One may read the IC50 as the concentration that gives 50% inhibition. In the case of `CC(C)n1cncc(-c2ccc(C3(NC(=O)c4ncc5cnn(C(C)C6CC6)c5n4)CC3)cc2)c1=O` (racemic) [Compound 59, 1-(1-cyclopropylethyl)-N-(1-(4-(1-i-propyl-6-oxo-1,6-dihydropyrimidin-5-yl)phenyl)cyclopropyl)-1H-pyrazolo[3,4-d]pyrimidine-6-carboxamide], the IC50 was determined as 3 nM.

On to `CC(C)n1ncc2cnc(C(=O)NC3(c4ccc(-c5cncn([C@H](C)C(F)(F)F)c5=O)cc4F)CC3)nc21` (stereo in doubt) [Compound 46], for which the concentration for half-maximal inhibition (IC50) was determined as 2 nM.

Consider `CC(C)n1ncc2cnc(C(=O)NC3(c4ccc(-c5cncn([C@@H](C)C(F)(F)F)c5=O)cc4F)CC3)nc21` (stereo in doubt) [Compound 47], for which the half-maximal inhibitory concentration (IC50) stood at 2 nM.

Turning to `CC(C)n1ncc2cnc(C(=O)NC3(c4ccc(-c5cncn(C6CCOC6)c5=O)cc4)CC3)nc21` (stereo in doubt) [Compound 80, (R)-1-i-propyl-N-(1-(4-(6-oxo-1-(tetrahydrofuran-3-yl)-1,6-dihydropyrimidin-5-yl)phenyl)cyclopropyl)-1H-pyrazolo[3,4-d]pyrimidine-6-carboxamide], the half-maximal inhibitory concentration (IC50) turned out to be 9 nM.

For `CC(C)n1ncc2cnc(C(=O)NC3(c4ccc(-c5cncn(C6CCOC6)c5=O)cc4)CC3)nc21` (stereo in doubt) [Compound 81, (S)-1-i-propyl-N-(1-(4-(6-oxo-1-(tetrahydrofuran-3-yl)-1,6-dihydropyrimidin-5-yl)phenyl)cyclopropyl)-1H-pyrazolo[3,4-d]pyrimidine-6-carboxamide], the IC50 is 8 nM.

Take `CC(C#N)n1cncc(-c2ccc(C3(NC(=O)c4ncc5cnn(C(C)C)c5n4)CC3)cc2)c1=O` (stereo in doubt) [Compound 82, (R)—N-(1-(4-(1-(1-cyanoethyl)-6-oxo-1,6-dihydropyrimidin-5-yl)phenyl)cyclopropyl)-1-i-propyl-1H-pyrazolo[3,4-d]pyrimidine-6-carboxamide]: the IC50 worked out at 18 nM.

In the case of `CC(C#N)n1cncc(-c2ccc(C3(NC(=O)c4ncc5cnn(C(C)C)c5n4)CC3)cc2)c1=O` (stereo in doubt) [Compound 83, (S)—N-(1-(4-(1-(1-cyanoethyl)-6-oxo-1,6-dihydropyrimidin-5-yl)phenyl)cyclopropyl)-1-i-propyl-1H-pyrazolo[3,4-d]pyrimidine-6-carboxamide], the IC50 worked out at 17 nM.

For `CC(C)n1ncc2cnc(C(=O)NC3(c4ccc(-c5cncn(C)c5=O)cc4)CC3)nc21` [Compound 1, 1-isopropyl-N-(1-(4-(1-methyl-6-oxo-1,6-dihydropyrimidin-5-yl)phenyl)cyclopropyl)-1H-pyrazolo[3,4-d]pyrimidine-6-carboxamide], the half-maximal inhibitory concentration (IC50) worked out at 21 nM.

Regarding `CC(C)n1ncc2cnc(C(=O)NC3(c4ccc(-c5cncn(C)c5=O)cn4)CC3)nc21` [Compound 2], the half-maximal inhibitory concentration (IC50) was 170 nM.

As for `Cn1cncc(-c2ccc(C3(NC(=O)c4nnc(Cc5ccccc5)[nH]4)CC3)cc2)c1=O` [Compound 3], the concentration for half-maximal inhibition (IC50) was found to be 21 nM.

For `Cn1cncc(-c2ccc(C3(NC(=O)c4ncc5cnn(-c6ccccc6)c5n4)CC3)cc2)c1=O` [Compound 4], the IC50 is 17 nM.

With `Cn1cncc(-c2ccc(C3(NC(=O)c4cc(Cc5ccccc5)on4)CC3)cc2)c1=O` [Compound 5], the IC50 is 24 nM.

On to `CC(C)Cc1nc(C(=O)NC2(c3ccc(-c4cncn(C)c4=O)cc3)CC2)ncc1Cl` [Compound 6], for which the IC50 worked out at 21 nM.

Regarding `Cn1cncc(-c2ccc(C3(NC(=O)c4ncn(Cc5ccccc5)n4)CC3)cc2)c1=O` [Compound 8], the IC50 amounted to 14 nM.

Take `Cn1cncc(-c2ccc(C3(NC(=O)c4noc(Cc5ccccc5)n4)CC3)cc2)c1=O` [Compound 9]: the IC50 worked out at 52 nM.

For `Cn1cncc(-c2ccc(C3(NC(=O)c4ncc(Cc5ccccc5)o4)CC3)cc2)c1=O` [Compound 10], the IC50 stood at 8 nM.

For the compound `Cn1cncc(-c2ccc(C3(NC(=O)c4nnc(Cc5ccccc5)o4)CC3)cc2)c1=O` [Compound 11], the IC50 came to 139 nM.

On to `CC(C)n1ncc2cnc(C(=O)NC3(c4ccc(-c5cncn(C6CC6)c5=O)cc4)CC3)nc21` [Compound 12], for which the IC50 turned out to be 18 nM.

As to `CC(C)n1cncc(-c2ccc(C3(NC(=O)c4nnc(Cc5ccccc5)o4)CC3)cc2)c1=O` [Compound 13], the IC50 amounted to 4 nM.

As for `CC(C)n1cncc(-c2ccc(C3(NC(=O)c4nc5n(n4)[C@@H](c4ccccc4)CC5)CC3)cc2)c1=O` [Compound 15], the half-maximal inhibitory concentration (IC50) was determined as 20 nM.

For `CC(C)n1cncc(-c2ccc(C3(NC(=O)c4nc5n(n4)[C@H](c4ccccc4)CC5)CC3)cc2)c1=O` [Compound 16], the half-inhibitory concentration (IC50) came out at 2 nM.

As for `CC(C)n1cncc(-c2ccc(C3(NC(=O)c4ncn(Cc5ccccc5)n4)CC3)cc2)c1=O` [Compound 17], the IC50 came to 1 nM.

For `Cn1cncc(-c2ccc(C3(NC(=O)c4nnc(Cc5c(F)cccc5F)[nH]4)CC3)cc2)c1=O` [Compound 18], the IC50 was 82 nM.

Take `CC(C)n1cncc(-c2ccc(C3(NC(=O)c4ncc5cnn(-c6ccccc6)c5n4)CC3)cc2)c1=O` [Compound 19]: the IC50 amounted to 3 nM.

Consider `CC(C)Cc1nc(C(=O)NC2(c3ccc(-c4cncn(C(C)C)c4=O)cc3)CC2)ncc1Cl` [Compound 22], for which the half-inhibitory concentration (IC50) is 3 nM.

Take `CC(C)n1ncc2cnc(C(=O)NC3(c4ccc(-c5cncn(C)c5=O)c(F)c4)CC3)nc21` [Compound 23, N-(1-(3-fluoro-4-(1-methyl-6-oxo-1,6-dihydropyrimidin-5-yl)phenyl)cyclopropyl)-1-isopropyl-1H-pyrazolo[3,4-d]pyrimidine-6-carboxamide]: the IC50 came out at 57 nM.

In the case of `CC(C)n1ncc2cnc(C(=O)NC3(c4ccc(-c5cncn(C)c5=O)c(Cl)c4)CC3)nc21` [Compound 25], the half-maximal inhibitory concentration (IC50) stood at 32 nM.

As to `CC(C)n1ncc2cnc(C(=O)NC3(c4ccc(-c5cncn(C)c5=O)cc4F)CC3)nc21` [Compound 26], the concentration for half-maximal inhibition (IC50) came out at 12 nM.

For the compound `CC(C)n1ncc2cnc(C(=O)NC3(c4ccc(-c5cncn(C)c5=O)cc4)CC3)cc21` [Compound 28, 1-isopropyl-N-(1-(4-(1-methyl-6-oxo-1,6-dihydropyrimidin-5-yl)phenyl)cyclopropyl)-1H-pyrazolo[4,3-c]pyridine-6-carboxamide], the IC50 came to 135 nM.

Consider `CC(C)n1cncc(-c2ccc(C3(NC(=O)c4ncc5cnn(C(C)C)c5n4)CC3)cc2)c1=O` [Compound 29, 1-isopropyl-N-(1-(4-(1-isopropyl-6-oxo-1,6-dihydropyrimidin-5-yl)phenyl)cyclopropyl)-1H-pyrazolo[3,4-d]pyrimidine-6-carboxamide], for which the 50% inhibitory concentration (IC50) was found to be 3 nM.

In the case of `CC(C)n1ncc2cnc(C(=O)NC3(c4ccc(-c5cnc(N)n(C)c5=O)cc4)CC3)nc21` [Compound 30], the concentration for half-maximal inhibition (IC50) was found to be 8 nM.

Regarding `CC(C)n1cncc(-c2ccc(C3(NC(=O)c4ncc5cnn(C(C)C)c5n4)CC3)cc2Cl)c1=O` [Compound 33], the IC50 is 10 nM.

Regarding `CC(C)n1cncc(-c2ccc(C3(NC(=O)c4ncc5cnn(C(C)C)c5n4)CC3)c(F)c2)c1=O` [Compound 34], the half-maximal inhibitory concentration (IC50) is 7 nM.

Regarding `CC(C)n1cncc(-c2ccc(C3(NC(=O)c4ncc5cnn(C(C)C)c5n4)CC3)cc2F)c1=O` [Compound 35], the IC50 was determined as 11 nM.

Take `CC(C)n1ncc2cnc(C(=O)NC3(c4ccc(-c5cncn(CC6CC6)c5=O)cc4)CC3)nc21` [Compound 36]: the 50% inhibitory concentration (IC50) is 3 nM.

In the case of `CCn1cncc(-c2ccc(C3(NC(=O)c4ncc5cnn(C(C)C)c5n4)CC3)cc2)c1=O` [Compound 37], the IC50 was 14 nM.
